{"source": "patent US20160324796A1", "about": "“COMPOSITIONS AND THEIR USE TO TREAT COMPLICATIONS OF ANEURYSMAL SUBARACHNOID HEMMORRHAGE” (Edge Therapeutics, Inc., priority 2007, published 2016)", "key": {"[1]": {"conditions": "cited from earlier work"}, "[2]": {"conditions": "cited from earlier work", "remark": "listed apart in the source"}, "[3]": {"assay": "Plasma nimodipine after single subcutaneous injection of nimodipine PLGA microparticles", "type": "in vivo, Wistar rats", "conditions": "rats, up to day 15", "protocol": "The rats were divided into separate treatment groups: one control group for treatment with a nimodipine reference solution (control group) and several test groups for treatment with exemplary nimodipine formulations (microparticle test group) according to the described invention. […] The test article was reconstituted with an injection vehicle volume of 0.15 or 0.70 ml, and the entire volume of each reconstituted vial was drawn up immediately and administered individually to each animal. Blood samples were collected from two alternating cohorts of 2 or 3 animals per cohort in the microparticle formulation-injected groups. Collection was immediately before injection and then 1, 12, and 24 hours post dose, and on days 4, 8, 11, and 15. After the last blood sample collection interval, the surviving animals were euthanized via carbon dioxide inhalation. Euthanasia was confirmed by cervical dislocation and anesthesia."}, "[4]": {"conditions": "Rats, Male, cited from earlier work"}, "[5]": {"conditions": "Mice, Male, cited from earlier work"}, "[6]": {"conditions": "female, mongrel, dog, in vivo", "description": "On days 8 and 15, the animals were anesthetized, and angiography, removal of CSF from the cistern magna and collection of plasma, were repeated. Other endpoints included daily blood pressure measurements, behavior assessment, and brain and spinal cord pathology. Animals were euthanized under anesthesia on day 28 or 49, perfused with PBS and then neutral buffered formalin, and the brains subjected to histological analysis.\nThe animals are grouped according to whether the animals died or were euthanized at an unscheduled time (DOS) or underwent scheduled necropsy (SNC)."}}, "note": "Read-outs that look alike come from different tables or passages of the source.", "data": [{"molecule": "COCCOC(=O)C1=C(C)NC(C)=C(C(=O)OC(C)C)C1c1cccc([N+](=O)[O-])c1", "note": "(stereo not drawn) [nimodipine, Isopropyl 2-methoxyethyl 1,4-dihydro-2,6-dimethyl-4-(m-nitrophenyl)-3,5-pyridinedicarboxylate]", "values": [{"measurement": "LD50", "setting": "[1]; Rabbits, Female, Intravenous", "value": 2.5, "unit": "mg/kg"}, {"measurement": "LD50", "setting": "[1]; female, rabbit, in vivo, po", "value": 5000, "unit": "mg/kg"}, {"measurement": "LD50", "setting": "[2]; Dogs, Male and female, Intravenous", "value": 4, "unit": "mg/kg"}, {"measurement": "LD50", "setting": "[2]; both, dog, in vivo, po", "value": "1000 to 2000", "unit": "mg/kg"}, {"measurement": "plasma nimodipine concentrations over time", "setting": "[3]", "value": "sustained release of nimodipine over time"}, {"measurement": "LD50", "setting": "[4]; Intravenous", "value": 16, "unit": "mg/kg"}, {"measurement": "LD50", "setting": "[4]; Oral", "value": 6599, "unit": "mg/kg"}, {"measurement": "LD50", "setting": "[5]; Intravenous", "value": 33, "unit": "mg/kg"}, {"measurement": "LD50", "setting": "[5]; Oral", "value": 3562, "unit": "mg/kg"}, {"measurement": "Brain discoloration, red, # of animals", "setting": "[6]; 28 d", "value": 0}, {"measurement": "Brain focus/foci, red, # of animals", "setting": "[6]; 28 d", "value": 0}, {"measurement": "Brain nodule, # of animals", "setting": "[6]; 28 d", "value": 0}, {"measurement": "Brain: chromatolysis, central, neuronal; minimal", "setting": "[6]; 28 d", "value": 0}, {"measurement": "Brain: degeneration, axonal/myelin; mild", "setting": "[6]; 28 d", "value": 0}, {"measurement": "Brain: degeneration, axonal/myelin; minimal", "setting": "[6]; 28 d", "value": 0}, {"measurement": "Brain: degeneration; mild", "setting": "[6]; 28 d", "value": 0}, {"measurement": "Brain: degeneration; minimal", "setting": "[6]; 28 d", "value": 0}, {"measurement": "Brain: fibroplasia; mild", "setting": "[6]; 28 d", "value": 0}, {"measurement": "Brain: fibroplasia; minimal", "setting": "[6]; 28 d", "value": 0}, {"measurement": "Brain: granulation tissue; mild", "setting": "[6]; 28 d", "value": 0}, {"measurement": "Brain: granulation tissue; minimal", "setting": "[6]; 28 d", "value": 0}, {"measurement": "Brain: hemorrhage; minimal", "setting": "[6]; 28 d", "value": 0}, {"measurement": "Brain: hemorrhage; moderate", "setting": "[6]; 28 d", "value": 0}, {"measurement": "Brain: inflammation, granulomous; minimal", "setting": "[6]; 28 d", "value": 0}, {"measurement": "Brain: inflammation, meningeal; minimal", "setting": "[6]; 28 d", "value": 0}, {"measurement": "Brain: inflammation, subacute/chronic; mild", "setting": "[6]; 28 d", "value": 0}, {"measurement": "Brain: macrophages, pigmented; mild", "setting": "[6]; 28 d", "value": 0}, {"measurement": "Brain: macrophages, pigmented; minimal", "setting": "[6]; 28 d", "value": 0}, {"measurement": "Brain: mineralization focal; minimal", "setting": "[6]; 28 d", "value": 0}, {"measurement": "Brain: neovascularization; minimal", "setting": "[6]; 28 d", "value": 0}, {"measurement": "Brain: within normal limits", "setting": "[6]; 28 d", "value": 0}, {"measurement": "Spinal Cord, Cervical: degeneration, axonal/myelin; minimal", "setting": "[6]; 28 d", "value": 0}, {"measurement": "Spinal Cord, Cervical: fibroplasia; minimal", "setting": "[6]; 28 d", "value": 0}, {"measurement": "Spinal Cord, Cervical: fibroplasia; moderate", "setting": "[6]; 28 d", "value": 0}, {"measurement": "Spinal Cord, Cervical: inflammation, granulomatous; minimal", "setting": "[6]; 28 d", "value": 0}, {"measurement": "Spinal Cord, Cervical: inflammation, subacute/chronic; mild", "setting": "[6]; 28 d", "value": 0}, {"measurement": "Spinal Cord, Cervical: macrophages, pigmented; minimal", "setting": "[6]; 28 d", "value": 0}, {"measurement": "Spinal Cord, Cervical: within normal limits", "setting": "[6]; 28 d", "value": 0}, {"measurement": "Spinal Cord, Lumbar: fibroplasia; minimal", "setting": "[6]; 28 d", "value": 0}, {"measurement": "Spinal Cord, Lumbar: hemorrhage; minimal", "setting": "[6]; 28 d", "value": 0}, {"measurement": "Spinal Cord, Lumbar: mineralization; minimal", "setting": "[6]; 28 d", "value": 0}, {"measurement": "Spinal Cord, Lumbar: within normal limits", "setting": "[6]; 28 d", "value": 0}, {"measurement": "Spinal Cord, Thoracic: fibroplasia; minimal", "setting": "[6]; 28 d", "value": 0}, {"measurement": "Spinal Cord, Thoracic: hemorrhage; minimal", "setting": "[6]; 28 d", "value": 0}, {"measurement": "Spinal Cord, Thoracic: inflammation, granulomatous; minimal", "setting": "[6]; 28 d", "value": 0}, {"measurement": "Spinal Cord, Thoracic: inflammation, subacute/chronic; minimal", "setting": "[6]; 28 d", "value": 0}, {"measurement": "Spinal Cord, Thoracic: macrophages, pigmented; minimal", "setting": "[6]; 28 d", "value": 0}, {"measurement": "Spinal Cord, Thoracic: within normal limits", "setting": "[6]; 28 d", "value": 0}, {"measurement": "Brain discoloration, red, # of animals", "setting": "[6]; 49 d", "value": 0}, {"measurement": "Brain focus/foci, red, # of animals", "setting": "[6]; 49 d", "value": 0}, {"measurement": "Brain nodule, # of animals", "setting": "[6]; 49 d", "value": 0}, {"measurement": "Brain: chromatolysis, central, neuronal; minimal", "setting": "[6]; 49 d", "value": 0}, {"measurement": "Brain: degeneration, axonal/myelin; mild", "setting": "[6]; 49 d", "value": 0}, {"measurement": "Brain: degeneration, axonal/myelin; minimal", "setting": "[6]; 49 d", "value": 0}, {"measurement": "Brain: degeneration; mild", "setting": "[6]; 49 d", "value": 0}, {"measurement": "Brain: fibroplasia; mild", "setting": "[6]; 49 d", "value": 0}, {"measurement": "Brain: fibroplasia; minimal", "setting": "[6]; 49 d", "value": 0}, {"measurement": "Brain: granulation tissue; mild", "setting": "[6]; 49 d", "value": 0}, {"measurement": "Brain: granulation tissue; minimal", "setting": "[6]; 49 d", "value": 0}, {"measurement": "Brain: hemorrhage; mild", "setting": "[6]; 49 d", "value": 0}, {"measurement": "Brain: hemorrhage; minimal", "setting": "[6]; 49 d", "value": 0}, {"measurement": "Brain: hemorrhage; moderate", "setting": "[6]; 49 d", "value": 0}, {"measurement": "Brain: infiltration, lymphoid, perivascular; minimal", "setting": "[6]; 49 d", "value": 0}, {"measurement": "Brain: inflammation, granulomous; mild", "setting": "[6]; 49 d", "value": 0}, {"measurement": "Brain: inflammation, granulomous; minimal", "setting": "[6]; 49 d", "value": 0}, {"measurement": "Brain: inflammation, meningeal; minimal", "setting": "[6]; 49 d", "value": 0}, {"measurement": "Brain: inflammation, subacute/chronic; mild", "setting": "[6]; 49 d", "value": 0}, {"measurement": "Brain: macrophages, pigmented; mild", "setting": "[6]; 49 d", "value": 0}, {"measurement": "Brain: macrophages, pigmented; minimal", "setting": "[6]; 49 d", "value": 0}, {"measurement": "Brain: mineralization focal; minimal", "setting": "[6]; 49 d", "value": 0}, {"measurement": "Brain: neovascularization; minimal", "setting": "[6]; 49 d", "value": 0}, {"measurement": "Brain: within normal limits", "setting": "[6]; 49 d", "value": 0}, {"measurement": "Spinal Cord, Cervical: degeneration, axonal/myelin; minimal", "setting": "[6]; 49 d", "value": 0}, {"measurement": "Spinal Cord, Cervical: fibroplasia; mild", "setting": "[6]; 49 d", "value": 0}, {"measurement": "Spinal Cord, Cervical: fibroplasia; minimal", "setting": "[6]; 49 d", "value": 0}, {"measurement": "Spinal Cord, Cervical: fibroplasia; moderate", "setting": "[6]; 49 d", "value": 0}, {"measurement": "Spinal Cord, Cervical: hemorrhage; minimal", "setting": "[6]; 49 d", "value": 0}, {"measurement": "Spinal Cord, Cervical: inflammation, granulomatous; minimal", "setting": "[6]; 49 d", "value": 0}, {"measurement": "Spinal Cord, Cervical: inflammation, granulomatous; moderate", "setting": "[6]; 49 d", "value": 0}, {"measurement": "Spinal Cord, Cervical: inflammation, subacute/chronic; mild", "setting": "[6]; 49 d", "value": 0}, {"measurement": "Spinal Cord, Cervical: macrophages, pigmented; minimal", "setting": "[6]; 49 d", "value": 0}, {"measurement": "Spinal Cord, Cervical: within normal limits", "setting": "[6]; 49 d", "value": 0}, {"measurement": "Spinal Cord, Lumbar: fibroplasia; minimal", "setting": "[6]; 49 d", "value": 0}, {"measurement": "Spinal Cord, Lumbar: hemorrhage; minimal", "setting": "[6]; 49 d", "value": 0}]}]}
